From US6960653B2, “Method and kit for detecting, or determining the quantity of, beta-lactam penicillins” (Randox Laboratories Limited, priority 2001, dated 2005)
≈ marks a conversion by molar mass, not a printed value.

System: IgG fraction of anti-ampicillin antiserum (antibodies raised against the hapten-BSA immunogen of Example 2)
Details: for % CR, Assay 1 / % CR, Assay 2 / % CR, Assay 3: % CR = IC50amp/IC50pen x 100; for IC50, Assay 1 / IC50, Assay 2 / IC50, Assay 3: concentration causing 50% displacement of signal, standards in TBST, ampicillin-HRP conjugate; for IC50, Mean Results / % CR, Mean Results: mean of Assays 1-3; for % CR, Mean Results: relative to 100% for ampicillin
Description: An aqueous solution of the immunogen of Example 2 was formulated with Freund's Complete Adjuvant (FCA) to form an emulsion consisting of 2 mg/ml immunogen in 50% (v/v) FCA. Three sheep were immunised with this emulsion, 0.25 ml being subcutaneously injected at each of 4 sites in the flank of each animal. Subsequent immunisations (boosts) contained 1 mg/ml immunogen emulsified in 50% (v/v) Freund's Incomplete Adjuvant (FIA) and were administered in the same manner at monthly intervals for 1 year. Blood sampling took place 7 to 14 days after each boost. Each sample was processed to produce antiserum which was further purified by caprylic acid and ammonium sulfate precipitation to yield an immunoglobulin G (IgG) fraction. The IgG fraction was evaluated by competitive ELISA, microtiter plate assay, as described below.
Serial dilutions of the IgG fraction of each antiserum to be tested (prepared in accordance with Example 4) were prepared in 10 mM Tris, pH 8.5. The wells of an enhanced binding 96 well polystyrene microtiter plate were coated with these dilutions (as shown in FIG. 2) by incubation at 37° C. for 2 hours (125 μl/well). The plate was washed 4 times with Tris buffered saline (pH7.4) containing Tween (Trade Mark) 20 (TBST) and tapped dry. […] 50 μl of TBST was added to the remaining (control) wells. […] The plate was incubated at 37° C. for 2 hours. The excess unbound conjugate was removed by washing 6 times over a 10 minute period with TBST. 125 μl of tetramethylbenzidine (TMB) substrate solution was added to each well of the plate, which was then incubated for 15 to 20 minutes, in the dark, at room temperature. The reaction was terminated by addition of 125 μl 0.2M H2SO4 to each well. The absorbance was then measured at 450 nm using a microtiter plate reader.
Standard solutions of benzylpenicillin (penicillin G-PenG), amoxycillin (Amox), cloxacillin (Clox), dicloxacillin (Diclox) and oxacillin (Oxa) were prepared in TBST at 0, 1, 5, 10, 50, 100, 200 and 500 ng/ml.

Compound | % CR, Assay 1 | IC50, Assay 1 | % CR, Assay 2 | IC50, Assay 2 | % CR, Assay 3 | IC50, Assay 3 | IC50, Mean Results | % CR, Mean Results
Cc1onc(-c2c(Cl)cccc2Cl)c1C(=O)N[C@@H]1C(=O)N2[C@@H]1SC(C)(C)[C@@H]2C(=O)O [Dicloxa, dicloxacillin] | 45% | 3.8 ng/mL (≈ 8.08 nM) | 42% | 6.0 ng/mL (≈ 12.8 nM) | 51% | 4.9 ng/mL (≈ 10.4 nM) | 4.9 ng/mL (≈ 10.4 nM) | 46%
Cc1onc(-c2ccccc2)c1C(=O)N[C@@H]1C(=O)N2[C@@H]1SC(C)(C)[C@@H]2C(=O)O [Oxa, oxacillin] | 42.5% | 4.0 ng/mL (≈ 9.96 nM) | 36% | 7.0 ng/mL (≈ 17.4 nM) | 38% | 6.6 ng/mL (≈ 16.4 nM) | 5.9 ng/mL (≈ 14.7 nM) | 39%
Cc1onc(-c2ccccc2Cl)c1C(=O)N[C@@H]1C(=O)N2[C@@H]1SC(C)(C)[C@@H]2C(=O)O [Cloxa, cloxacillin] | 50% | 3.4 ng/mL (≈ 7.8 nM) | 43% | 5.8 ng/mL (≈ 13.3 nM) | 43% | 5.8 ng/mL (≈ 13.3 nM) | 5 ng/mL (≈ 11.5 nM) | 45%
CC1(C)S[C@@H]2[C@H](NC(=O)[C@H](N)c3ccccc3)C(=O)N2[C@H]1C(=O)O [Amp, ampicillin] | 100% | 1.7 ng/mL (≈ 4.87 nM) | 100% | 2.5 ng/mL (≈ 7.15 nM) | 100% | 2.5 ng/mL (≈ 7.15 nM) | 2.2 ng/mL (≈ 6.3 nM) | 100%
CC1(C)SC2C(NC(=O)C(N)c3ccc(O)cc3)C(=O)N2C1C(=O)O (stereo not drawn) [Amox, amoxycillin] | 94% | 1.8 ng/mL (≈ 4.93 nM) | 83% | 3.0 ng/mL (≈ 8.21 nM) | 83% | 3.0 ng/mL (≈ 8.21 nM) | 2.6 ng/mL (≈ 7.12 nM) | 87%
CC1(C)S[C@@H]2[C@H](NC(=O)Cc3ccccc3)C(=O)N2[C@H]1C(=O)O [PenG, benzylpenicillin] | 63% | 2.7 ng/mL (≈ 8.07 nM) | 78% | 3.2 ng/mL (≈ 9.57 nM) | 74% | 3.4 ng/mL (≈ 10.2 nM) | 3.1 ng/mL (≈ 9.27 nM) | 72%
